Biological target: T1, human neutrophil elastase (HNE) (Homo sapiens, UniProt P08246)
T1 construct: purchased Sigma E8140
T1 sequence (P08246 30-247 limits assumed): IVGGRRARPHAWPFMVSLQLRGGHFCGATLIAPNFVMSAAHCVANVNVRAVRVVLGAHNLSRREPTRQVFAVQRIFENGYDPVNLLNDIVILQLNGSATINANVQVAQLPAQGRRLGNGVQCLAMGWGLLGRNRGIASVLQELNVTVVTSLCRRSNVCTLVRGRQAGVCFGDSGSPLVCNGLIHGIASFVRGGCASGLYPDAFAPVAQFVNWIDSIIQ
Assay: HNE Enzyme Assay (fluorogenic peptide substrate MeOSuc-Ala-Ala-Pro-Val-AMC)
Type: biochemical
Details: human leukocyte elastase 0.00072 U/mL, substrate 100 μM, 25° C., 30 minutes, at least two separate experiments; read-out: HNE inhibition (IC50 values)
Procedure: Compounds of this invention were tested for potency in a human neutrophil elastase (HNE) enzyme activity assay.
Assays were performed in 96-well plates in a total assay volume of 100 μL. The final concentration of elastase enzyme (human leukocyte elastase, Sigma E8140) was 0.00072 U/mL. The peptide substrate (MeOSuc-Ala-Ala-Pro-Val-AMC, Calbiochem #324740) was used at a final concentration of 100 μM. The final concentration of DMSO was 1% in the assay buffer (0.05M Tris.HCl, 0.1M NaCl, 0.1M CaCl2, 0.0005% Brij-35, pH 7.5). The enzymatic reaction was started by addition of the enzyme and incubated at 25° C. for 30 minutes. After incubation, the reaction was stopped by addition of soybean trypsin inhibitor (Sigma T9003) at a final concentration of 50 μg/well. Fluorescence was measured using a Molecular Devices fluorescence plate reader using 380 nm excitation and 460 nm emission wavelengths.
A concentration response to each compound was performed and the effect of compound in each experiment was expressed as a percentage inhibition of the control enzyme fluorescence. Dose response curves were plotted and compound potency (IC50) was determined. Compounds were tested in at least two separate experiments.

SMILES	IC50 [nM]
Cc1c(-c2ccnn2-c2ccc(C#N)cc2)n(C(=O)N[C@H]2CCC[C@@H]2OCc2ccccc2)c(=O)n1-c1cccc(C(F)(F)F)c1 [Example 2, 5-[2-(4-Cyano-phenyl)-2H-pyrazol-3-yl]-4-methyl-2-oxo-3-(3-trifluoromethyl-phenyl)-2,3-dihydro-imidazole-1-carboxylic acid ((1S,2S)-2-benzyloxy-cyclopentyl)-amide]	1 to 10
Cc1c(-c2ccnn2-c2ccc(C#N)cc2)n(C(=O)N[C@@H](C)C(=O)N(C)C2CCN(C)CC2)c(=O)n1-c1cccc(C(F)(F)F)c1 [Example 28, 5-[2-(4-Cyano-phenyl)-2H-pyrazol-3-yl]-4-methyl-2-oxo-3-(3-trifluoromethyl-phenyl)-2,3-dihydro-imidazole-1-carboxylic acid {(S)-1-[methyl-(1-methyl-piperidin-4-yl)-carbamoyl]-ethyl}-amide]	< 1
Cc1c(-c2ccnn2-c2ccc(C#N)cc2)n(C(=O)N[C@@H](C)C(=O)NC2CCN(C)CC2)c(=O)n1-c1cccc(C(F)(F)F)c1 [Example 13, 5-[2-(4-Cyano-phenyl)-2H-pyrazol-3-yl]-4-methyl-2-oxo-3-(3-trifluoromethyl-phenyl)-2,3-dihydro-imidazole-1-carboxylic acid [(S)-1-(1-methyl-piperidin-4-ylcarbamoyl)-ethyl]-amide]	< 1
Cc1c(-c2ccnn2-c2ccc(C#N)cc2)n(C(=O)NC2CC[N+](C)(C)CC2)c(=O)n1-c1cccc(C(F)(F)F)c1 [Example 32, 4-{[5-[2-(4-Cyano-phenyl)-2H-pyrazol-3-yl]-4-methyl-2-oxo-3-(3-trifluoromethyl-phenyl)-2,3-dihydro-imidazole-1-carbonyl]-amino}-1,1-dimethyl-piperidinium benzenesulfonate]	< 1

Now from value to compound:

IC50 [nM]	SMILES
< 1	Cc1c(-c2ccnn2-c2ccc(C#N)cc2)n(C(=O)N[C@H]2CC[C@H](C(=O)N(C)CC[N+](C)(C)C)CC2)c(=O)n1-c1cccc(C(F)(F)F)c1 [Example 89, {2-[(Trans-4-{[5-[2-(4-cyano-phenyl)-2H-pyrazol-3-yl]-4-methyl-2-oxo-3-(3-trifluoromethyl-phenyl)-2,3-dihydro-imidazole-1-carbonyl]-amino}-cyclohexanecarbonyl)-methyl-amino]-ethyl}-trimethyl-ammonium benzene sulfonate]
< 1	Cc1c(-c2ccnn2-c2ccc(C#N)cc2)n(C(=O)NC2(c3ncc(C[N+](C)(C)C)o3)CC2)c(=O)n1-c1cccc(C(F)(F)F)c1 [Example 79, [2-(1-{[5-[2-(4-Cyano-phenyl)-2H-pyrazol-3-yl]-4-methyl-2-oxo-3-(3-trifluoromethyl-phenyl)-2,3-dihydro-imidazole-1-carbonyl]-amino}-cyclopropyl)-oxazol-5-ylmethyl]-trimethyl-ammonium benzene sulfonate]
< 1	Cc1c(-c2ccnn2-c2ccc(C#N)cc2)n(C(=O)N[C@H]2CC[C@H](CNC(=O)CN(C)C)CC2)c(=O)n1-c1cccc(C(F)(F)F)c1 [Example 27, 5-[2-(4-Cyano-phenyl)-2H-pyrazol-3-yl]-4-methyl-2-oxo-3-(3-trifluoromethyl-phenyl)-2,3-dihydro-imidazole-1-carboxylic acid {trans-4-[(2-dimethylamino-acetylamino)-methyl]-cyclohexyl}-amide]
< 1	Cc1c(-c2ccnn2-c2ccc(C#N)cc2)n(C(=O)N[C@H]2C[C@@H](C[N+](C)(C)C)C2)c(=O)n1-c1cccc(C(F)(F)F)c1 [Example 67, (Cis-3-{[5-[2-(4-cyano-phenyl)-2H-pyrazol-3-yl]-4-methyl-2-oxo-3-(3-trifluoromethyl-phenyl)-2,3-dihydro-imidazole-1-carbonyl]-amino}-cyclobutylmethyl)-trimethyl-ammonium benzene sulfonate]
